Data on 9 compounds can be found in US6936736B2, “Amide derivative” (Sumitomo Manufacturing Company Limited, priority 1997, dated 2005).

The subject of series [1] is constant white light-induced retinal damage. Nature of the series: Experiment 2: protective effect against constant white light-induced retinal damage (ERG a-wave), administration of eye drops. It counts as in vivo. Conditions: rats, 50 μl per once to both eyes, at 0, 3, 6, 9 and 24 hours. An excerpt:
(§1) Male Wistar rats (7 weeks old, Charles River Japan Inc.) were purchased and maintained in cyclic light/dark environment (8:00-20:00/light term) for one week, and then placed within the apparatus for constant white light exposure for two days. The constant white light exposure apparatus is a covered breeding box of 1020 mm in length, 425 mm in width, 520 mm in height, which is made of acryl boards and of which all inner side are covered with mirrors. Light was continuously irradiated all the day long (24 hours) using white fluorescent lamp attached to the ceiling of the apparatus. The average illuminance in the apparatus was 174.2 foot candle. After two days in the apparatus, the rats were moved to a darkroom and dark adapted for 1-4 hours. The rats were anesthetized with pentobarbital and placed in a stereotaxic frame. After topical mydriatica was given and electrodes were put on corneal surface, center of the forehead and the lower part of the lobe, the response in active potential of retina to the flash stimulation with fixed energy was determined from the recorded ERG (electroretinogram). The damage of retina was evaluated by the decrease in the amplitude of ERG a-wave which originated from retinal outer nuclear cells (photoreceptors). Test compounds were intraperitoneally injected just before placing the rats into the constant light exposure apparatus and at the same time on the next day to investigate its protective effect.
(§2) Pharmacological Effect Against Constant White Light-induced Retinal Damage
(§3) The protective effect of the compound of Examples by administration of eye drops was tested by the same method as Experiment 1. The tested compounds were administered immediately before rats were placed within the apparatus for constant white light exposure. Further, the eye drops were administered 3, 6, 9 and 24 hours after and the effect was evaluated.
The compounds of the present invention were dissolved in 0.5% aqueous methylcellulose (MC) solution and each 50 μl of the solution per once was dropped to both eyes of 5 rats, according to the method of Experiment 1. In the same way, 0.5% MC solution was dropped to eyes of the rats in MC group.
The rats maintained in 12 hours cyclic light/dark environment were used for normal control group.

For series [2] the test system is unchanged. The experiment in a line: Experiment 1: protective effect against constant white light-induced retinal damage (ERG a-wave), intraperitoneal administration. In kind it is in vivo, Male Wistar rats. Conditions: rats, 50 mg/kg intraperitoneally twice, in 0.5% methylcellulose; ERG a-wave amplitude after two days constant light.
Description: Retinal outer nuclear cells have been known to be degenerated by the constant white light exposure to albino rats (L. M. Rapp, et al., New York: Plenum, 135 (1980)). Effectiveness of the compounds of formula 1, 2 or 3 or pharmaceutical acceptable salts thereof can be evaluated by their protective action against constant light exposure-induced retinal degeneration in rats. The present invention is embodied by the following experiment.
as §2, §1
According to the experimental procedure described above, each test compound in the present invention, which was suspended or dissolved in 0.5% methylcellulose (MC) solution, was intraperitoneally administered twice to three rats in a group at the dose of 50 mg/kg. In the same way, 0.5% MC solution was intraperitoneally administered to the rats in MC group. The rats maintained in 12 hours cyclic light/dark environment were used for normal control group. The protection by the compounds against the retinal damage was represented as % recovery value, and the results were shown in Table 1. % recovery=(x−z)÷(y−z)×100 • x : a-wave amplitude in test compound group • y : a-wave amplitude in normal control group • z : a-wave amplitude in MC group

The test system is the same in series [3]. Nature of the series: Experiment 3: protective effect against constant white light-induced retinal damage (ERG a-wave), eye drops, several concentrations. In kind it is in vivo. Conditions: rats, 50 μl per once to both eyes.
Description: as §1, §3, §2
The compound of Example 50 was further tested by the same method as Experiment 2.
The compound of the present invention was dissolved in 0.5% aqueous methylcellulose (MC) solution and each 50 μl of the solution per once was dropped to both eyes of 5 rats, according to the method of Experiment 1. In the same way, 0.5% MC solution was dropped to eyes of the rats in MC group. The rats maintained in 12 hours cyclic light/dark environment were used for normal control group.

For `CC(C)(C)NC(=O)c1ccc(Br)cc1F` [Example 49, N-t-butyl-4-bromo-2-fluorobenzamide], in series [1] (eye drops 0.4 mg/ml in 0.5% MC), the “% recovery (Mean ± S.E.M.)” value is on record as 5.1 ± 1.8%.
`CC(C)(C)NC(=O)c1ccc(F)cc1F` [Example 1, N-t-Butyl-2,4-difluorobenzamide]: the “% recovery (Mean ± S.E.M.)” value in series [2] was determined as 95.5 ± 12.3%; in series [1] (eye drops 2 mg/ml in 0.5% MC) it was 11.6 ± 2.6%.
As for `CC(C)(C)NC(=O)c1ccc(Cl)cn1` [Example 40, N-t-Butyl-5-chloro-2-pyridinecarboxamide], the “% recovery (Mean ± S.E.M.)” value in series [2] amounted to 82.3 ± 25.6%.
For `CC(C)(C)NC(=O)c1ccccc1F` [Example 48, N-t-butyl-2-fluorobenzamide], the “% recovery (Mean ± S.E.M.)” value in series [1] (eye drops 3.2 mg/ml in 0.5% MC) stood at 15.0 ± 3.7%.
`CC(C)(CO)NC(=O)c1ccc(F)cc1F` [Example 27, N-(2-Hydroxy-1,1-dimethylethyl)-2,4-difluorobenzamide]: in series [2], the “% recovery (Mean ± S.E.M.)” value is listed as 45.7 ± 10.1%.
In the case of `CC(C)(CO)NC(=O)c1ccc(Cl)cn1` [Example 47, N-(2-Hydroxy-1,1-dimethylethyl)-5-chloro-2-pyridinecarboxamide], in series [2], the “% recovery (Mean ± S.E.M.)” value is 58.2 ± 2.7%.
On to `CC(C)(C)NC(=O)c1cc(F)ccc1F` [Example 25, N-t-Butyl-2,5-difluorobenzamide], for which the “% recovery (Mean ± S.E.M.)” value in series [1] (eye drops 1.2 mg/ml in 0.5% MC) is given as 16.2 ± 3.2%.
Take `CC(C)(C)NC(=O)c1cccc[n+]1[O-]` [Example 50, N-t-butyl-1-oxide-2-pyridinecarboxamide]: the “% recovery (Mean ± S.E.M.)” value was 19.1 ± 7.5% in series [1] (eye drops 10 mg/ml in 0.5% MC); 2.3 ± 3.8% in series [3] (eye drops 3 mg/ml in 0.5% MC); 6.9 ± 5.7% in series [3] (eye drops 10 mg/ml in 0.5% MC); 17.4 ± 3.9** % in series [3] (eye drops 30 mg/ml in 0.5% MC, ** p < 0.01 vs solvent only (Dunnett)); 35.6 ± 2.7** % in series [3] (eye drops 60 mg/ml in 0.5% MC, ** p < 0.01 vs solvent only (Dunnett)).
Take `CC(C)(C)NC(=O)c1ccc(F)cc1` [Example 6, N-t-Butyl-4-fluorobenzamide]: the “% recovery (Mean ± S.E.M.)” value in series [2] was determined as 80.1 ± 8.9%.
